Source: US5750733A, “Hydroxy containing alkyl glycamides, low foaming detergent compositions comprising such and a process for their manufacture” (Lever Brothers Company, Division of Conopco, Inc., priority 1996, dated 1998)

Assays:
zein = test system: zein
Experimental: The zein solubilization assay was developed to determine the biological effects of surfactants on the skin. The protein is normally insoluble in water, but can be brought into solution by interaction with surfactants. The extent of zein dissolved is related to the irritation potential (M. J. Schwinger, Kolloid-Z.Z. Poly., 233, 848, 1969). The greater the zein solubilization, the greater the irritation potential of that surfactant on the skin.
Thus, a 1% solution of surfactant (30 mls) was added to 1.5 g of zein and stirred at room temperature for 1 hours. Residual zein was collected and dried to constant weight. Differences between starting and residual weight were used to calculate % zein solubilized.

[1] = Krafft Point (Water Solubility Test); conditions: for Krafft Point (0.1%): 0.1% dispersion in water by weight; for water solubility (in words): 0.1% in water, Krafft point test
Experimental: The temperature at and above which surfactants begin to form micelles instead of precipitates is referred to as the Krafft point (Tk) and at this temperature the solubility of a surfactant becomes equal to its CMC (numerical value at which micelles are formed).
The Krafft point was measured by preparing 650 ml of a 0.1% dispersion of surfactant in water by weight. If the surfactant was soluble at room temperature, the solution was slowly cooled to 0° C. […] If it precipitated out of solution, the temperature at which precipitation occurs was taken as the Krafft point.
If the surfactant was insoluble at room temperature, the dispersion was slowly heated until the solution became homogeneous. It was then slowly cooled until precipitation occurred. The temperature at which the surfactant precipitates out of solution upon cooling was taken as the Krafft point.

[2] = Clarity Enhancement of prototype detergent compositions with sodium lauryl sulfate; format: physicochemical; conditions: 3% compound with 15.0% sodium lauryl sulfate, room temperature; for Appearance: stored 6 months
Experimental: The prototype detergent composition is as follows:
Hydroxy Containing Alkyl
Glycamide (or Comparative)
Sodium Chloride 2.0% Viscosity Cobuilder
The above formulations were prepared by admixing the above ingredients in listed order and heating the mixture to about 80° C. with rapid stirring. The mixture was then cooled to about 40° C., placed in a clear jar and stored at room temperature for 6 months.

[3] = Ross-Miles Foam Height of Various Sugar Based Surfactants; conditions: 0.1% surfactant, 50° C.; for Initial foam height / Final foam height (10 min.): 0 ppm hardness; for Final foam height (10 min.): after 10 minutes; for solubility in foam height test (in words): foam height cannot be measured if insoluble
Experimental: Since most of the foaming data on surfactants is typically obtained by the Ross-Miles Foam Height Assay (Ross, J. and Miles, G. D. Am Soc. for Testing material Method D1173-63 Philadelphia, Pa. (1953); Oil & Soap (1958)62:1260) the foaming ability of these surfactants were acquired using this method.
In the Ross-Miles method, 200 mL of a surfactant solution contained in a pipette of specified dimensions with a 2.9 -mm-i.d. orifice is allowed to fall 90 cm onto 50 mL of the same solution contained in a cylindrical vessel maintained at a given temperature by means of a water jacket. The height of the foam produced in the cylindrical vessel is read immediately after all the solution has run out of the pipette and then again after a given amount of time.
Using this method, the foam production (initial foam height in mm) and foam stability (final foam height after 10 minutes as measured in mm) were measured at 0.1% sugar surfactant concentration, 50° C. and 0 ppm (parts per million) hardness.

[4] = Foaming of a Prototype Detergent Formulation (Ross Miles Foam Height Method); format: physicochemical; conditions: for Foam height of formulation, 5 min / Foam height of formulation, 10 min / Foam height of formulation, Initial: formulation with 4% of the compound, 0.4% formulation, 25° C., 18 FH
Source text: A prototype detergent formulation comprising a hydroxy containing alkyl glycamide surfactant was made and tested to an identical formulation containing a non-hydroxy containing alkyl glycamide. The formulation is as follows: […]
C10 -C14 Linear Alkylbenzene Sulfonate
C12 -C15 Alcohol Ethoxylate Containing 7 Units of
Dodecyl 5-Hydroxy D-Glucamide (or Comparative)
Sodium Tripolyphosphate 30
Sodium Carboxymethyl Cellulose

[5] = Micellization and Surface Tension Reduction; format: physicochemical; conditions: in water
Source text: The appearance and development of micelles are important since detergency (solubilization of soils) by dishwashing liquids, shampoos, detergents, etc., depend on the formation of these aggregates in solution.

SMILES | Krafft Point (0.1%) [1] [°C] | Initial foam height [3] [mm] | Final foam height (10 min.) [3] | Micellization and Surface Tension Reduction [5] | water solubility (in words) [1] | solubility in foam height test (in words) [3] | further results
CCCCCCCC(O)CCCC(=O)NC[C@H](O)[C@@H](O)[C@H](O)[C@H](O)CO (stereo partly drawn) [Dodecyl 5-Hydroxy D-Glucamide, dodecyl 5-hydroxy D-glucamide] | 41 | 67 | Negligible | Yes | – | – | % Zein Solubilized (zein): 7%; mildness / zein solubilization (in words) (zein): less zein solubilization; Appearance ([2]; listed as C12 5-Hydroxy D-Glucamide): Clear; Appearance ([2]; listed as dodecyl 5-hydroxy glucamide): stay in solution; foaming of formulation (in words) ([4]; compared to identical formulation with dodecyl methyl D-glucamide): low foaming compared to identical formulations containing dodecyl methyl D-glucamide; Foam height of formulation, 5 min [4]: 94 mm; Foam height of formulation, 10 min [4]: 75 mm; Foam height of formulation, Initial [4]: 125 mm
CCCCCCCCCCCCCCCCCC(=O)NC[C@H](O)[C@@H](O)[C@H](O)[C@H](O)CO [Octadecyl D-Glucamide] | > 100 | – | – | No | Insoluble | Insoluble | –
CCCCCCCCCCCC(=O)NC[C@H](O)[C@@H](O)[C@H](O)[C@H](O)CO [Dodecyl D-Glucamide, dodecyl D-glucamide] | > 100 | – | – | No | Insoluble | Insoluble | Time to precipitation [2]: ≤ 3 days; Appearance [2]: Precipitate; Time to precipitation ([2]; listed as C12 D-Glucamide): 3 days
CCCCCCCCCCCCCCCC(=O)NC[C@H](O)[C@@H](O)[C@H](O)[C@H](O)CO [Hexadecyl D-Glucamide] | > 100 | – | – | No | Insoluble | Insoluble | –
CCCCCCCCCCNC(=O)[C@H](O)[C@@H](O)[C@H](O)[C@H](O)CO [Decyl D-Gluconamide] | 75 | 199 | 6 mm | Yes | – | – | –
CCCCCCCCCCCC(=O)N(C)C[C@H](O)[C@@H](O)[C@H](O)[C@H](O)CO [Dodecyl Methyl D-Glucamide, dodecyl methyl D-glucamide] | 45 | 173 | 157 mm | Yes | – | – | Foam height of formulation, 5 min [4]: 110 mm; Foam height of formulation, 10 min [4]: 100 mm; Foam height of formulation, Initial [4]: 135 mm
CCCCCCCCCCCCCC(=O)NC[C@H](O)[C@@H](O)[C@H](O)[C@H](O)CO [Tetradecyl D-Glucamide] | > 100 | – | – | No | Insoluble | Insoluble | –
CN(C[C@H](O)[C@@H](O)[C@H](O[C@H]1O[C@H](CO)[C@@H](O)[C@H](O)[C@H]1O)[C@H](O)CO)C(=O)CCCCCCCCCCCO [Dodecyl 12-Hydroxy Methyl D-Maltamide, dodecyl 12-hydroxy methyl D-maltamide] | < 21 | 57 | Negligible | Yes | – | – | –
CCCCCCCCCCCCCCCCNC(=O)[C@H](O)[C@@H](O)[C@H](O)[C@H](O)CO [Hexadecyl D-Gluconamide] | > 100 | – | – | No | Insoluble | Insoluble | –
CCCCCCCCNC(=O)[C@H](O)[C@@H](O)[C@H](O)[C@H](O)CO [Octyl D-Gluconamide] | 12 | 0 | 0 mm | Yes | – | – | –
CCCCCCCCCCCCNC(=O)[C@H](O)[C@@H](O)[C@H](O)[C@H](O)CO [Dodecyl D-Gluconamide] | > 100 | – | – | No | Insoluble | Insoluble | –
CCCCCCCC(O)CCC(=O)NC[C@H](O)[C@@H](O)[C@H](O)[C@H](O)CO (stereo partly drawn) [Undecyl 4-Hydroxy D-Glucamide, undecyl-4-hydroxy D-glucamide] | 37 | 60 | Negligible | Yes | – | – | –
CCCCCCCCCCCCNC(=O)[C@@H](O)[C@H](O)[C@@H](O)[C@@H](O)CO [Dodecyl L-Gluconamide] | > 100 | – | – | No | Insoluble | Insoluble | –
CCCCCCCCCCCCCCNC(=O)[C@H](O)[C@@H](O)[C@H](O)[C@H](O)CO [Tetradecyl D-Gluconamide] | > 100 | – | – | No | Insoluble | Insoluble | –
